Results reported in ChEMBL document CHEMBL1201862, “PubChem BioAssay data set” (2004).
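These data come from cells grown in 96-well plates and exposed to compound for 48 hours at five concentrations. GI50 = concentration required for 50% inhibition of growth.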 Activity calls are given as the source filed them. Rule as the data show it: active = GI50 up to about 1.1 µM and inactive = higher.

Tests used:
Assay in all cases: NCI-60 cell line screen, 48 h
CAKI-1 = test system: CAKI-1
MOLT-4 = test system: MOLT-4
UACC-257 = test system: UACC-257
HL-60 = test system: HL-60
U-251 = test system: U-251
OVCAR-5 = test system: OVCAR-5
NCI-H226 = test system: NCI-H226
SK-MEL-5 = test system: SK-MEL-5
SR = test system: SR
UACC-62 = test system: UACC-62
SK-MEL-2 = test system: SK-MEL-2
SF-268 = test system: SF-268
TK-10 = test system: TK-10
RPMI-8226 = test system: RPMI-8226
HT-29 = test system: HT-29
SNB-78 = test system: SNB-78
SNB-19 = test system: SNB-19
A498 = test system: A498
SK-MEL-28 = test system: SK-MEL-28
SW-620 = test system: SW-620
A549 = test system: A549
LXFL 529 = test system: LXFL 529
NCI-H522 = test system: NCI-H522
DMS-114 = test system: DMS-114
Malme-3M = test system: Malme-3M
NCI-H23 = test system: NCI-H23
COLO 205 = test system: COLO 205
RXF 393 = test system: RXF 393
HCT-116 = test system: HCT-116
SK-OV-3 = test system: SK-OV-3
ACHN = test system: ACHN
SF-295 = test system: SF-295
786-0 = test system: 786-0
SF-539 = test system: SF-539
DMS-273 = test system: DMS-273
SN12C = test system: SN12C
DLD-1 = test system: DLD-1
HCC 2998 = test system: HCC 2998
HOP-92 = test system: HOP-92
CCRF-CEM = test system: CCRF-CEM
KM12 = test system: KM12
M19-MEL = test system: M19-MEL
SNB-75 = test system: SNB-75
OVCAR-3 = test system: OVCAR-3
UO-31 = test system: UO-31
K562 = test system: K562
HOP-18 = test system: HOP-18
EKVX = test system: EKVX
NCI-H460 = test system: NCI-H460
OVCAR-8 = test system: OVCAR-8
IGROV-1 = test system: IGROV-1
OVCAR-4 = test system: OVCAR-4
LOX IMVI = test system: LOX IMVI
HCT-15 = test system: HCT-15
HOP-62 = test system: HOP-62
M14 = test system: M14
KM-20L2 = test system: KM-20L2

With `N#CCCC[Si]12OCCN(CCO1)CCO2` the GI50 (CAKI-1) was > 100 µM (inactive), the GI50 (MOLT-4) was > 100 µM (inactive) and the GI50 (UACC-257) was > 100 µM (inactive). For the same molecule, the GI50 (HL-60) was > 100 µM (inactive), the GI50 (U-251) was > 100 µM (inactive) and the GI50 (OVCAR-5) was > 100 µM (inactive). The GI50 (NCI-H226) was > 100 µM (inactive), the GI50 (SK-MEL-5) was > 100 µM (inactive) and the GI50 (SR) was > 100 µM (inactive). For the same molecule, the GI50 (UACC-62) was > 100 µM (inactive), the GI50 (SK-MEL-2) was > 100 µM (inactive) and the GI50 (SF-268) was > 100 µM (inactive). For the same molecule, the GI50 (TK-10) was > 100 µM (inactive), the GI50 (RPMI-8226) was > 100 µM (inactive) and the GI50 (HT-29) was > 100 µM (inactive). For the same molecule, the GI50 (SNB-78) was > 100 µM (inactive), the GI50 (SNB-19) was > 100 µM (inactive) and the GI50 (A498) was > 100 µM (inactive). For the same molecule, the GI50 (SK-MEL-28) was > 100 µM (inactive), the GI50 (SW-620) was > 100 µM (inactive) and the GI50 (A549) was > 100 µM (inactive). For the same molecule, the GI50 (LXFL 529) was > 100 µM (inactive), the GI50 (NCI-H522) was > 100 µM (inactive) and the GI50 (DMS-114) was > 100 µM (inactive). For the same molecule, the GI50 (Malme-3M) was > 100 µM (inactive), the GI50 (NCI-H23) was > 100 µM (inactive) and the GI50 (COLO 205) was > 100 µM (inactive). For the same molecule, the GI50 (RXF 393) was > 100 µM (inactive), the GI50 (HCT-116) was > 100 µM (inactive) and the GI50 (SK-OV-3) was > 100 µM (inactive). For the same molecule, the GI50 (ACHN) was > 100 µM (inactive), the GI50 (SF-295) was > 100 µM (inactive) and the GI50 (786-0) was > 100 µM (inactive). The GI50 (SF-539) was > 100 µM (inactive), the GI50 (DMS-273) was > 100 µM (inactive) and the GI50 (SN12C) was > 100 µM (inactive). The GI50 (DLD-1) was > 100 µM (inactive), the GI50 (HCC 2998) was > 100 µM (inactive) and the GI50 (HOP-92) was > 100 µM (inactive). For the same molecule, the GI50 (CCRF-CEM) was > 100 µM (inactive), the GI50 (KM12) was > 100 µM (inactive) and the GI50 (M19-MEL) was > 100 µM (inactive). For the same molecule, the GI50 (SNB-75) was > 100 µM (inactive), the GI50 (OVCAR-3) was > 100 µM (inactive) and the GI50 (UO-31) was > 100 µM (inactive). The GI50 (K562) was > 100 µM (inactive), the GI50 (HOP-18) was > 100 µM (inactive) and the GI50 (EKVX) was > 100 µM (inactive). For the same molecule, the GI50 (NCI-H460) was > 100 µM (inactive), the GI50 (OVCAR-8) was > 100 µM (inactive) and the GI50 (IGROV-1) was > 100 µM (inactive).

For `Nc1nc2ncn(CCO)c2c(=S)[nH]1`, the GI50 (CAKI-1) was > 100 µM (inactive), the GI50 (UACC-257) was > 100 µM (inactive) and the GI50 (OVCAR-4) was > 100 µM (inactive). The GI50 (HL-60) was > 100 µM (inactive), the GI50 (U-251) was > 100 µM (inactive) and the GI50 (LOX IMVI) was > 100 µM (inactive). The GI50 (OVCAR-5) was > 100 µM (inactive), the GI50 (NCI-H226) was > 100 µM (inactive) and the GI50 (SK-MEL-5) was > 100 µM (inactive). For the same molecule, the GI50 (UACC-62) was > 100 µM (inactive), the GI50 (HCT-15) was over 100 µM and the GI50 (SK-MEL-2) was > 100 µM (inactive). The GI50 (SF-268) was > 100 µM (inactive), the GI50 (TK-10) was > 100 µM (inactive) and the GI50 (RPMI-8226) was > 100 µM (inactive). The GI50 (HT-29) was > 100 µM (inactive), the GI50 (SNB-78) was > 100 µM (inactive) and the GI50 (SNB-19) was > 100 µM (inactive). The GI50 (A498) was > 100 µM (inactive), the GI50 (SK-MEL-28) was > 100 µM (inactive) and the GI50 (SW-620) was > 100 µM (inactive). For the same molecule, the GI50 (A549) was > 100 µM (inactive), the GI50 (LXFL 529) was > 100 µM (inactive) and the GI50 (NCI-H522) was > 100 µM (inactive). The GI50 (DMS-114) was > 100 µM (inactive), the GI50 (Malme-3M) was > 100 µM (inactive) and the GI50 (COLO 205) was > 100 µM (inactive). For the same molecule, the GI50 (RXF 393) was > 100 µM (inactive), the GI50 (HCT-116) was > 100 µM (inactive) and the GI50 (HOP-62) was > 100 µM (inactive). The GI50 (SK-OV-3) was > 100 µM (inactive), the GI50 (ACHN) was > 100 µM (inactive) and the GI50 (SF-295) was > 100 µM (inactive). For the same molecule, the GI50 (786-0) was > 100 µM (inactive), the GI50 (SF-539) was > 100 µM (inactive) and the GI50 (DMS-273) was > 100 µM (inactive). The GI50 (SN12C) was > 100 µM (inactive), the GI50 (DLD-1) was > 100 µM (inactive) and the GI50 (HCC 2998) was > 100 µM (inactive). The GI50 (HOP-92) was > 100 µM (inactive), the GI50 (CCRF-CEM) was > 100 µM (inactive) and the GI50 (KM12) was > 100 µM (inactive). For the same molecule, the GI50 (M19-MEL) was > 100 µM (inactive), the GI50 (SNB-75) was > 100 µM (inactive) and the GI50 (OVCAR-3) was > 100 µM (inactive). The GI50 (UO-31) was > 100 µM (inactive), the GI50 (M14) was > 100 µM (inactive) and the GI50 (KM-20L2) was > 100 µM (inactive). For the same molecule, the GI50 (K562) was > 100 µM (inactive), the GI50 (HOP-18) was > 100 µM (inactive) and the GI50 (EKVX) was > 100 µM (inactive). For the same molecule, the GI50 (NCI-H460) was > 100 µM (inactive), the GI50 (OVCAR-8) was > 100 µM (inactive) and the GI50 (IGROV-1) was > 100 µM (inactive).
